These results are taken from the supplement of paper PMC10702517.

± gives the standard deviation.

The data set is described as follows: chemical recovery from spiked human plasma; higher = better extraction. Particulars: pooled human plasma.
Setting [1] is: extraction method: PES+SPE (3 d PDMS equilibration then HLB SPE).
Where [2] appears, read: extraction method: solvent precipitation (ACN + hexane).
[3] abbreviates: extraction method: SPE only (HLB 96-well).
[4] abbreviates: extraction method: SPE only (HLB 96-well), PES comparison experiment.

As to `CC(C)NCC(O)COc1cccc2[nH]ccc12` (stereo not given) [Pindolol], the chemical recovery by setting is: under setting [1], 42.3 ± 1.6%; under setting [2], 76 ± 2.5%.

Regarding `CCc1cc(C)cc(CC)c1-c1c(OC(=O)C(C)(C)C)n2n(c1=O)CCOCC2` [Pinoxaden], the chemical recovery amounted to 0.0892 ± 0.042% under setting [1] and 21.1 ± 3.2% under setting [3].

In the case of `NC(=O)C1(N2CCCCC2)CCN(CCCC(=O)c2ccc(F)cc2)CC1` [Pipamperone], the chemical recovery came out at 4.98 ± 1.1% under setting [1], 28.3 ± 3.7% under setting [3] and 71.4 ± 4.4% under setting [2].

For `CC[C@H](C)C(=O)O[C@H]1C[C@H](O)C=C2C=C[C@H](C)[C@H](CC[C@@H](O)C[C@@H](O)CC(=O)O)[C@H]21` [Pravastatin], the chemical recovery was 31.6 ± 3.5% under setting [1], 28.1 ± 2.9% under setting [3], 58.6 ± 5.1% under setting [4] and 67 ± 6.7% under setting [2].

In the case of `CC(C)C[C@H](CN)CC(=O)O` [Pregabalin], the chemical recovery came out at 8.64 ± 5.9% under setting [3] and 66 ± 7.2% under setting [2].

Take `CCC1(c2ccccc2)C(=O)NCNC1=O` [Primidone]: the chemical recovery runs as follows: under setting [1], 41.5 ± 2.6%; under setting [3], 36.6 ± 3.8%; under setting [4], 41.9 ± 4.5%; under setting [2], 76.5 ± 3.6%.

With `CCCN(CCOc1c(Cl)cc(Cl)cc1Cl)C(=O)NC=O` [Prochloraz BTS445-96], under setting [2], the chemical recovery worked out at 71.33 ± 0.59%.

With `CC12CC1(C)C(=O)N(c1cc(Cl)cc(Cl)c1)C2=O` (stereo not given) [Procymidone], the chemical recovery under setting [3] was 18.9 ± 2.2%.

As to `CCCSP(=O)(OCC)Oc1ccc(Br)cc1Cl` (stereo not given) [Profenofos], the chemical recovery under setting [3] was found to be 39.9 ± 5.7%.

For `CCCOC(=O)NCCCN(C)C` [Propamocarb], the chemical recovery by setting is: under setting [3], 6.68 ± 4.3%; under setting [2], 54.9 ± 3.7%.

Under setting [3], `C#CCOS(=O)OC1CCCCC1Oc1ccc(C(C)(C)C)cc1` (stereo not given) [Propargite] had a chemical recovery of 42.4 ± 10%.

For `CNC(=O)Oc1ccccc1OC(C)C` [Propoxur], the chemical recovery was found to be 33.3 ± 8.7% under setting [1], 37.5 ± 0.59% under setting [3] and 46.7 ± 3.7% under setting [2].

In the case of `CCCN(CCC)C(=O)SCc1ccccc1` [Prosulfocarb], the chemical recovery under setting [3] came out at 33.6 ± 4.5%, the chemical recovery under setting [4] was 35.1 ± 6% and the chemical recovery under setting [2] is 72.6 ± 6.4%.

Consider `CC1=NNC(=O)N(/N=C/c2cccnc2)C1` [Pymetrozine], for which the chemical recovery runs as follows: under setting [3], 13.5 ± 3.4%; under setting [2], 75.4 ± 2.9%.

With `Cc1cc(C)nc(Nc2ccccc2)n1` [Pyrimethanil], the chemical recovery under setting [1] turned out to be 51.1 ± 7.5%, the chemical recovery under setting [3] turned out to be 31.2 ± 2.5% and the chemical recovery under setting [2] came out at 61.9 ± 3%.

On to `[O-][n+]1cccc2ccccc21` [Quinoline N-oxide], for which the chemical recovery is, setting by setting: under setting [1], 42.6 ± 6%; under setting [3], 43.8 ± 0.64%; under setting [2], 76.1 ± 3.2%.

In the case of `CC(Oc1ccc(Oc2cnc3cc(Cl)ccc3n2)cc1)C(=O)O` (stereo not given) [Quizalofop], the chemical recovery reads like this: under setting [1], 43.1 ± 5.6%; under setting [3], 28.1 ± 1.3%; under setting [2], 67.8 ± 5.7%.

With `CNC(=C[N+](=O)[O-])NCCSCc1ccc(CN(C)C)o1` [Ranitidine], under setting [2], the chemical recovery came out at 65.6 ± 6.1%.

`O=C1NS(=O)(=O)c2ccccc21` [Saccharin]: under setting [3], the chemical recovery was determined as 38.6 ± 7.1%.

In the case of `CC[C@@H](C(=O)[C@@H](C)[C@@H](O)[C@H](C)[C@@H]1O[C@@H]([C@@H](CC)C(=O)O)CC[C@@H]1C)[C@H]1O[C@]2(C=C[C@@H](O)[C@]3(CC[C@@](C)([C@H]4CC[C@](O)(CC)[C@H](C)O4)O3)O2)[C@H](C)C[C@@H]1C` [Salinomycin], the chemical recovery reads like this: under setting [3], 26.7 ± 6.9%; under setting [2], 51.9 ± 13%.

For the compound `CCCC[N+]1(C)[C@H]2CC(OC(=O)C(CO)c3ccccc3)C[C@H]1[C@H]1O[C@H]12` (stereo not given in full) [Scopolamine-N-butyl], the chemical recovery is 42.2 ± 2.6% under setting [1], 38.4 ± 3.4% under setting [3], 44.2 ± 6.1% under setting [4] and 65.8 ± 3.2% under setting [2].

As for `O=C(O)CCCCCCCCC(=O)O` [Sebacic-acid], the chemical recovery amounted to 54.6 ± 13% under setting [1] and 48.9 ± 13% under setting [3].

Turning to `C=CCC1(C(C)CCC)C(=O)NC(=O)NC1=O` (stereo not given) [Secobarbital], the chemical recovery was 53.8 ± 5% under setting [1], 36.7 ± 1.2% under setting [3], 61.1 ± 8.4% under setting [4] and 72.8 ± 5.8% under setting [2].

Take `CCNc1nc(NCC)[nH]c(=O)n1` [Simazine-2-Hydroxy]: the chemical recovery under setting [1] came to 20.1 ± 4.3%, the chemical recovery under setting [3] came to 14.8 ± 5.5% and the chemical recovery under setting [2] worked out at 75.6 ± 6%.

For `N[C@@H](CC(=O)N1CCn2c(nnc2C(F)(F)F)C1)Cc1cc(F)c(F)cc1F` [Sitagliptin], the chemical recovery reads like this: under setting [1], 33.4 ± 2.7%; under setting [3], 30 ± 3.4%; under setting [2], 72.7 ± 3.6%.

On to `CNC(=O)c1cc(Oc2ccc(NC(=O)Nc3ccc(Cl)c(C(F)(F)F)c3)cc2)ccn1` [Sorafenib], for which the chemical recovery reads like this: under setting [3], 61.3 ± 14%; under setting [2], 74.4 ± 5.8%.

Turning to `O=C1C[C@@H]2OCC=C3CN4CC[C@]56c7ccccc7N1[C@H]5[C@H]2[C@H]3C[C@H]46` [Strychnine], the chemical recovery under setting [2] stood at 59.5 ± 4.5%.

Consider `O=C(O)CCCCCCC(=O)O` [Suberic-acid], for which the chemical recovery is, setting by setting: under setting [1], 99.8 ± 34%; under setting [3], 82.2 ± 2.5%.

Consider `OC[C@H]1O[C@H](O[C@]2(CCl)O[C@H](CCl)[C@@H](O)[C@@H]2O)[C@H](O)[C@@H](O)[C@H]1Cl` [Sucralose], for which the chemical recovery worked out at 23 ± 2.4% under setting [1], 21.6 ± 1.4% under setting [3] and 58.3 ± 3.9% under setting [4].

Turning to `Nc1ccc(S(=O)(=O)Nc2nccs2)cc1` [Sulfathiazole], the chemical recovery by setting is: under setting [3], 31.1 ± 2.5%; under setting [4], 51.1 ± 6.3%; under setting [2], 69.2 ± 3.2%.

For `CC(C)(C)C(O)(CCc1ccc(Cl)cc1)Cn1cncn1` (stereo not given) [Tebuconazole], the chemical recovery under setting [2] was 77.8 ± 3.1%.

On to `CCOP(=S)(OCC)SCSC(C)(C)C` [Terbufos], for which the chemical recovery under setting [3] came out at 14.7 ± 4.8%.

Regarding `CCNc1nc(NC(C)(C)C)[nH]c(=O)n1` [Terbuthylazine-2-hydroxy], the chemical recovery is, setting by setting: under setting [1], 41.4 ± 3.8%; under setting [3], 35.5 ± 3.4%; under setting [4], 43.6 ± 5.5%; under setting [2], 76.7 ± 3.9%.

As to `CC(=O)N(CCN(C(C)=O)C(C)=O)C(C)=O` [Tetraacetylethylenediamine], the chemical recovery under setting [1] stood at 29.2 ± 6.4%.

For `CCCC[N+](CCCC)(CCCC)CCCC` [Tetrabutylammonium], under setting [3], the chemical recovery came out at 43 ± 3.8%.

Consider `CCCCCCCCCCCCCCOS(=O)(=O)O` [Tetradecylsulfate], for which the chemical recovery reads like this: under setting [3], 28.4 ± 6.5%; under setting [2], 35.5 ± 5.1%.

For the compound `CCCCCCCCCCCCCC[N+](C)(C)C` [Tetradecyltrimethylammonium], the chemical recovery under setting [3] was 94.4 ± 29%.

`CC[N+](CC)(CC)CC` [Tetraethylammonium] returned a chemical recovery under setting [3] of 1.23 ± 0.72%.

`COCCOCCOCCOCCOC` [Tetraglyme]: the chemical recovery under setting [1] was found to be 31.9 ± 3.7%, the chemical recovery under setting [3] was 28.4 ± 3.6%, the chemical recovery under setting [4] amounted to 39.7 ± 9% and the chemical recovery under setting [2] was found to be 76.1 ± 3.7%.

Under setting [3], `Cn1cnc2c1c(=O)[nH]c(=O)n2C` [Theobromine] yielded a chemical recovery of 77.3 ± 28%.

Take `Cn1c(=O)c2[nH]cnc2n(C)c1=O` [Theophyllin]: the chemical recovery reads like this: under setting [4], 95.7 ± 22%; under setting [2], 101 ± 6.1%.

On to `c1ccc2[nH]c(-c3cscn3)nc2c1` [Thiabendazole], for which the chemical recovery runs as follows: under setting [1], 40.6 ± 4.9%; under setting [3], 41.3 ± 3%; under setting [4], 49.3 ± 3.5%; under setting [2], 80.4 ± 4.5%.

In the case of `CN1COCN(Cc2cnc(Cl)s2)/C1=N\[N+](=O)[O-]` [Thiamethoxam], the chemical recovery under setting [1] stood at 55.7 ± 4.8%, the chemical recovery under setting [3] was 50 ± 3.5% and the chemical recovery under setting [2] is 73 ± 2.7%.

Regarding `COP(=S)(OC)Oc1c(Cl)cc(C)cc1Cl` [Tolclofos-methyl], the chemical recovery under setting [3] came out at 33.8 ± 9.1% and the chemical recovery under setting [2] was determined as 62 ± 6.2%.

With `Cc1c(Cl)cccc1Nc1ccccc1C(=O)O` [Tolfenamic-acid], the chemical recovery reads like this: under setting [1], 56.7 ± 5.2%; under setting [3], 36.5 ± 12%; under setting [2], 47.5 ± 1.9%.

As to `COc1cccc([C@@]2(O)CCCC[C@@H]2CN(C)C)c1` [Tramadol], the chemical recovery reads like this: under setting [1], 31.3 ± 3.1%; under setting [3], 31.2 ± 2.6%.

In the case of `C[C@]12C=CC3=C4CCC(=O)C=C4CCC3C1CC[C@@H]2O` (stereo not given in full) [Trenbolone], under setting [4], the chemical recovery was found to be 47.4 ± 6.8%.

Consider `CS(=O)(=O)OC[C@H](O)[C@@H](O)COS(C)(=O)=O` [Treosulfan], for which the chemical recovery by setting is: under setting [1], 7.98 ± 1.3%; under setting [3], 18.7 ± 3.8%.

In turn, `CC(=O)OCC(COC(C)=O)OC(C)=O` [Triacetin] had a chemical recovery under setting [3] of 30.3 ± 3.4%.

For the compound `CC1(C)O[C@@H]2C[C@H]3[C@@H]4CCC5=CC(=O)C=C[C@]5(C)[C@@]4(F)[C@@H](O)C[C@]3(C)[C@]2(C(=O)CO)O1` [Triamcinolone acetonide], the chemical recovery under setting [4] amounted to 47.3 ± 4.9%.

In the case of `O=C(O)COc1nc(Cl)c(Cl)cc1Cl` [Triclopyr], the chemical recovery runs as follows: under setting [1], 43 ± 3.5%; under setting [3], 37 ± 3.9%; under setting [2], 70.3 ± 2.9%.

Turning to `CCCCOCCOCCOCCO` [Triethylene-Glycol-Monobutyl-Ether], the chemical recovery stood at 165 ± 16% under setting [1] and 109 ± 30% under setting [3].

`COCCOCCOCCOC` [Triglyme] returned a chemical recovery under setting [3] of 24.9 ± 4.5%.

Regarding `COc1cc(Cc2cnc(N)nc2N)cc(OC)c1OC` [Trimethoprim], the chemical recovery is 39.2 ± 3.2% under setting [1], 45 ± 1.5% under setting [3], 48 ± 6.2% under setting [4] and 72.5 ± 4.2% under setting [2].

For `COC(=O)CC(O)(CC(=O)OC)C(=O)OC` [Trimethylcitrate], the chemical recovery is, setting by setting: under setting [1], 24.5 ± 2.7%; under setting [3], 30.7 ± 4.5%; under setting [2], 12.5 ± 2.5%.

As to `CCCCCCCC[N+](C)(C)C` [Trimethyloctylammonium], the chemical recovery was 38.7 ± 3.8% under setting [1], 35 ± 2.5% under setting [3], 45.7 ± 6.1% under setting [4] and 72.1 ± 3% under setting [2].

On to `COP(=O)(OC)OC` [Trimethylphosphate], for which the chemical recovery under setting [3] was found to be 3.11 ± 2.1% and the chemical recovery under setting [2] was found to be 0.912 ± 1.3%.

For the compound `CCCN(CCC)CCC` [Tripropylamine], the chemical recovery under setting [3] amounted to 7.35 ± 6.9% and the chemical recovery under setting [2] was determined as 2.09 ± 3.1%.

For `O=c1n(CC(Br)CBr)c(=O)n(CC(Br)CBr)c(=O)n1CC(Br)CBr` (stereo not given) [Tris(2,3-dibromopropyl)isocyanurate], the chemical recovery under setting [3] was 3.25 ± 5.6%.

For `O=P(OCC(Br)CBr)(OCC(Br)CBr)OCC(Br)CBr` (stereo not given) [Tris(2,3-dibromopropyl)phosphate], the chemical recovery came out at 60.7 ± 8% under setting [1] and 14.8 ± 3.3% under setting [3].

As for `CCCCC(CC)COP(=O)(OCC(CC)CCCC)OCC(CC)CCCC` (stereo not given) [Tris(2-ethylhexl)phosphate], the chemical recovery is, setting by setting: under setting [3], 6.76 ± 2.9%; under setting [4], 4.16 ± 1.6%; under setting [2], 107 ± 4.1%.

On to `COc1nc(NC(=O)NS(=O)(=O)c2ccccc2C(F)(F)F)nc(C(F)(F)F)n1` [Tritosulfuron], for which the chemical recovery is, setting by setting: under setting [1], 72.3 ± 6.7%; under setting [3], 67.7 ± 4.7%; under setting [2], 76.1 ± 3.9%.

Under setting [3], `CC(C)(c1ccccc1)c1cc(-n2nc3ccccc3n2)c(O)c(C(C)(C)c2ccccc2)c1` [UV-234] had a chemical recovery of 0.688 ± 0.28%.
